Assay [1] relates to Bacillus cereus (ATCC 11778). The procedure: (§1) The third step in the CAMP-discovery process is the evaluation of the antimicrobial effectiveness of the newly identified peptides. The eight synthetic peptides were tested against a panel of Gram-positive and Gram-negative bacteria. These bacteria include Bacillus cereus, Staphylococcus aureus, Escherichia coli, and Pseudomonas aeruginosa. […] When incubated with live metabolically-active cells, the non-fluorescent blue dye resazurin is converted to the highly fluorescent pink resorufin, as a result of reduction by the cells. While bacteria can reduce resazurin via multiple metabolic processes, the rate of conversion and the corresponding increase in fluorescence are directly proportional to the number of living cells in the sample [19–21, 25]. Thus, fluorometric detection of the rate of resazurin conversion to resorufin at 530ex/590em allows for quantification of bacterial survival following exposure to antibacterial compounds, such as CAMPs.
(§2) Escherichia coli (ATCC 25922), Bacillus cereus (ATCC 11778), Pseudomonas aeruginosa (ATCC 9027), and Staphylococcus aureus (ATCC 25923) used in these studies were purchased from the American Type Culture Collection (Manassas, VA). Bacteria were grown following ATCC recommended protocols for each strain and frozen aliquots were prepared in 20% glycerol and stored at -80°C for further use.
(§3) Frozen enumerated bacterial aliquots were thawed on ice and mixed. For each strain, bacteria are diluted to 2 × 10^6 CFU/mL in sterile 10 mM sodium phosphate (pH 7.4) and added in 50 µL aliquots to the wells of a 96-well black microtiter plate (Greiner Bio-One 655201) containing 50 µL volumes of serially diluted CAMP, dissolved in the same phosphate buffer. Control wells contain bacteria with no peptide. The microtiter plate was incubated for 3 hours at 30°C (B. cereus) or 37°C for other strains. After three hours, 100 µL of PBS solution with dissolved resazurin and MHB was added to each well. The amount of resazurin and MHB that was added is bacterial strain dependent, with the final resazurin (µM)/ MHB (wt/vol) concentrations being 100 µM/ 0.2% (wt/vol) for E. coli, 12.5 µM/ 0.05% (wt/vol) for B. cereus, 25 µM/ 2.2% (wt/vol) for P. aerugoinsa, and 50 µM/ 2.2% (wt/vol) for S. aureus. The metabolic conversion of resazurin to resorufin is bacterial strain dependent and requires concentrations optimized for each species to achieve a high-throughput assessment. Following addition of resazurin/MHB buffer, the plate was immediately placed in either a SpectraMax Gemini EM plate-reading fluorimeter (E. coli and B. cereus) or a TeCan Safire 2 fluorimeter (S. aureus and P. aeruginosa) for incubation overnight at either 30°C (B. cereus) or 37°C (other strains) while monitoring fluorescence for each well.
(§4) Fluorescence data was collected from each well during the monitoring period using equations compiled by microplate data software (SoftMax Pro 4.5 or Magellen 6). Onset time of half maximal fluorescence (T0.5) was used for quantifying bacterial concentrations. Standard curves were generated in preliminary experiments using serially diluted bacterial suspensions (~10^6 CFU/mL- 10^3 CFU/mL) without CAMPs. […] Correlating bacterial CFU values for wells containing peptide with control wells containing no CAMPs it is possible to determine bacterial survival for wells containing CAMPs.

Assay [2] has as its system Escherichia coli (ATCC 25922). As for the experimental part:
as §1, §2, §3, §4

For assay [3], the system named is Pseudomonas aeruginosa (ATCC 9027). The procedure: as §1, §2, §3, §4
Assay [4] concerns Staphylococcus aureus (ATCC 25923). The procedure:
as §1, §2, §3, §4

One may read the EC50 as the concentration giving half of the maximal effect.

Where two headings read alike, the source gives them in different places. Where no end group is shown, it is not given here.

`CC[C@H](C)[C@H](NC(=O)[C@H](CCCCN)NC(=O)[C@H](CCC(=O)O)NC(=O)[C@H](CCCCN)NC(=O)[C@H](CO)NC(=O)[C@H](CCCCN)NC(=O)[C@H](CCCNC(=N)N)NC(=O)[C@H](Cc1ccccc1)NC(=O)[C@H](Cc1ccccc1)NC(=O)[C@H](CC(=O)O)NC(=O)CNC(=O)[C@H](CC(C)C)NC(=O)[C@@H](N)CC(C)C)C(=O)NCC(=O)N[C@@H](CCCCN)C(=O)N[C@@H](CCC(=O)O)C(=O)N[C@@H](Cc1ccccc1)C(=O)N[C@@H](CCCCN)C(=O)N[C@@H](CCCNC(=N)N)C(=O)N[C@H](C(=O)N[C@H](C(=O)N[C@@H](CCC(N)=O)C(=O)N[C@@H](CCCNC(=N)N)C(=O)N[C@H](C(=O)N[C@@H](CCCCN)C(=O)N[C@@H](CC(=O)O)C(=O)N[C@@H](Cc1ccccc1)C(=O)N[C@@H](CC(C)C)C(=O)N[C@@H](CCCNC(=N)N)C(=O)N[C@@H](CC(N)=O)C(=O)N[C@@H](CC(C)C)C(=O)N[C@H](C(=O)N1CCC[C@H]1C(=O)N[C@@H](CCCNC(=N)N)C(=O)N[C@H](C(=O)N[C@@H](CCC(=O)O)C(=O)N[C@@H](CO)C(=O)O)[C@@H](C)O)C(C)C)[C@@H](C)CC)C(C)C)[C@@H](C)CC` [LL-37, reference compound]: the EC50 was 28.7 nM in assay [1] (read-out: B. cereus EC50, B. cereus ATCC 11778, 2 × 10^6 CFU/mL stock mixed 1:1 with peptide in 10 mM sodium phosphate pH 7.4, 3 h at 30°C, resazurin fluorescence read-out (T0.5), triplicate, variable-slope sigmoidal fit); 8.21 nM in assay [2] (read-out: E. coli EC50, E. coli ATCC 25922, 2 × 10^6 CFU/mL stock mixed 1:1 with peptide in 10 mM sodium phosphate pH 7.4, 3 h at 37°C, resazurin fluorescence read-out (T0.5), triplicate, variable-slope sigmoidal fit); 525 nM in assay [3] (read-out: P. aeruginosa EC50, P. aeruginosa ATCC 9027, 2 × 10^6 CFU/mL stock mixed 1:1 with peptide in 10 mM sodium phosphate pH 7.4, 3 h at 37°C, resazurin fluorescence read-out (T0.5), triplicate, variable-slope sigmoidal fit); 552 nM in assay [4] (read-out: S. aureus EC50, S. aureus ATCC 25923, 2 × 10^6 CFU/mL stock mixed 1:1 with peptide in 10 mM sodium phosphate pH 7.4, 3 h at 37°C, resazurin fluorescence read-out (T0.5), triplicate, variable-slope sigmoidal fit).
On to FSTKTRNWFSEHFKKVKEKLKDTFA [APOC1_64–88], for which the EC50 in assay [1] (ATCC 11778, 3 h, pH 7.4) was found to be 245 nM; in assay [2] (ATCC 25922, 3 h, pH 7.4) it was 192 nM; in assay [3] (ATCC 9027, 3 h, pH 7.4), 1410 nM; in assay [4] (ATCC 25923, 3 h, pH 7.4), 9660 nM.
On to KKTSMKIIPFTRL [FGG401–413], for which the EC50 in assay [1] (ATCC 11778, 3 h, pH 7.4) turned out to be 18700 nM; in assay [2] (ATCC 25922, 3 h, pH 7.4), 245 nM; in assay [3] (ATCC 9027, 3 h, pH 7.4), 11100 nM; in assay [4] (ATCC 25923, 3 h, pH 7.4), 31800 nM.
The corresponding values for KTRNWFSEHFKKVKEKLKDTFA [APOC1_67–88] are 210 nM, 151 nM, 948 nM and 7080 nM.
In the case of PPGASPRKKPRKQ [ASAP130LP], in assay [4] (ATCC 25923, 3 h, pH 7.4), the response was half-maximal at 101000 nM (EC50).
In turn, VERIPLVRFKSIKKQLHERGDL [NOTS17–38] displayed an EC50 in assay [4] (ATCC 25923, 3 h, pH 7.4) of 198000 nM.
For the molecule YSLKKTSMKIIPFTRL [FGG398–413], the EC50 in assay [1] (ATCC 11778, 3 h, pH 7.4) amounted to 9350 nM; in assay [2] (ATCC 25922, 3 h, pH 7.4), 332 nM; in assay [3] (ATCC 9027, 3 h, pH 7.4) it was 7020 nM; in assay [4] (ATCC 25923, 3 h, pH 7.4) it was 2840 nM.

Source of the values: article PMC4324634, “Bioprospecting the American Alligator (Alligator mississippiensis) Host Defense Peptidome” (PLoS ONE, 2015).
